# Assay results as given in patent publication US6673770B1, “Peptides for the treatment, prophylaxis, diagnosis and monitoring of autoimmune diseases” (Upither B.V., priority 1998, dated 2004).
# Ends that are not written are not given here.
# Key:
# MHC class II RT1.B^L = molecular target: T1, MHC class II RT1.B^L (Rattus norvegicus, UniProt P20037+P29826); test: MHC-peptide competition binding assay on isolated RT1.B^L molecules; parameters: species or system Lewis rat
# T1 sequence (P20037 24-256): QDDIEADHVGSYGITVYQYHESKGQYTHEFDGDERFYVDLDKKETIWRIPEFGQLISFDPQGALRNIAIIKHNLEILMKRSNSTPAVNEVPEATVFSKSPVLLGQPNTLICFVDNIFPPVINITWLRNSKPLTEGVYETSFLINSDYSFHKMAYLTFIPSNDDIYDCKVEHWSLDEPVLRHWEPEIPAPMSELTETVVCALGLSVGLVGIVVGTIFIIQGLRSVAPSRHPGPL
# T1 sequence (P29826 28-263): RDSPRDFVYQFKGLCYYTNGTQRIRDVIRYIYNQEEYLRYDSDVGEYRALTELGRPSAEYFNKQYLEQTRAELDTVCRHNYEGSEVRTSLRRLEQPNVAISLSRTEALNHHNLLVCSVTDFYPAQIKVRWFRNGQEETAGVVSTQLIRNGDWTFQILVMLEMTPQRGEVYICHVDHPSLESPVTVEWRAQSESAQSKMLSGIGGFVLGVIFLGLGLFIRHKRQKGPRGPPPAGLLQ
# Source text: Because the rat self-antigen to which the A2b T-clone is reactive is not known at present time, the present inventors have designed a computer search strategy based on the interactions of the mycobacterial hsp65 178-186 peptide within the trimolecular complex of MHC class II (RT1.B^L)-mycobacterial hsp65 178-186-T-cell receptor of clone A2b, to identify relevant candidate arthritis-associated antigens that can serve as target for autoimmune T-cell mediated tissue destruction in arthritis. Within the mycobacterial hsp65 178-186 sequence, residues involved in MHC binding have been identified by using an MHC-peptide binding assay on isolated MHC class II RT1.B^L proteins. The residues which have an important role in determining the RT1.B^L binding affinity of the mycobacterial hsp65 178-186 peptide, the so-called MHC anchor residues were determined. By studying the MHC-peptide binding affinities of other non-related peptides, a general MHC-peptide binding motif for the Lewis rat RT1.B1 molecule was defined (Wauben et al., Int. Immunol. 9:281 (1997)). For the definition of residues within the minimal core sequence mycobacterial hsp65 180-186, interacting with the T-cell receptor of the A2b T cell clone, the results derived from MHC-peptide binding assays, and proliferation assays of the A2b T cell clone were integrated.
# #RT1.B^L binding affinity is expressed as 50%ID (=inhibitory dose). The 50%ID value indicates the concentration of peptide needed to inhibit 50% binding of the marker peptide in a competition assay on isolated RT1.B^L molecules.
# [1] = test system: peripheral blood lymphocytes (PBL) of RA/JCA patients; test: 6-days proliferation assay on PBLs of RA and JCA patients; assay type: cell-based, human; details: number of patients with PBL proliferation >2 times background; 15-mers at 1 μg/ml and 10 μ/ml
# Experimental: T-cell responses to the selected peptides in patients are analysed by studying T-cell proliferation of peripheral blood lymphocytes (PBL) and synovial fluid derived cells. […] In these human studies the peptides are tested as 15-mers containing the 9-mer sequence of Table 2 as core sequence. […] This is further strengthened by the fact that, the patients were not selected for having a certain MHC haplotype. The MHC binding affinity of the selected peptides is analysed for the most-common MHC class II-arthritis associations. In Table 3 the peptide binding affinity for DRB1*0401 is shown as an example. The peptide binding affinity is tested in a MHC-peptide competition assay on isolated MHC molecules in the presence of a labelled marker peptide. The fact that of the n=12 peptides selected for binding to the rat DQ equivalent RT1.B^1, n=11 peptides also bind DRB1*0401, further confirms the promiscuous MHC binding of the selected peptides. This ensures a wide applicability of the peptides for prophylaxis, treatment, monitoring and/or diagnosis of the disease.
# ^ Indicated are the numbers of patients responding to tire peptides as defined in a 6-days proliferation assay on PBLs. Responses were considered positive if the proliferation (as measured by ^3H-thymidine incorporation) was >2 times background proliferation. Peptides were tested in concentrations of 1 μg/ml and 10 μ/ml.
# DRB1*0401 = DRB1*0401 (Homo sapiens, UniProt P01903+P01911, A100K/A169T/F76Y/I96L/K127E/L162R/M171V/N62H/P40V/Q125Y/R42H/S133A/S149N/S66Y/V115G/V209L/W38E); test: MHC-peptide competition binding assay on isolated DRB1*0401 molecules; details: DRB1*0401 1 μM, biotinylated HA-marker peptide 100 nM, peptide 0-256 μM; read-out: DRB1*0401 binding (IC50)
# Experimental: T-cell responses to the selected peptides in patients are analysed by studying T-cell proliferation of peripheral blood lymphocytes (PBL) and synovial fluid derived cells. […] In these human studies the peptides are tested as 15-mers containing the 9-mer sequence of Table 2 as core sequence. […] The MHC binding affinity of the selected peptides is analysed for the most-common MHC class II-arthritis associations. […] The peptide binding affinity is tested in a MHC-peptide competition assay on isolated MHC molecules in the presence of a labelled marker peptide.
# # MHC-peptide binding was measured as described in Wauben et al., Int. Immunol. […] Peptide binding is expressed as tire IC50.
# T cell clone A2b = test: Recognition by A2b T-cell clone: proliferation and/or activation marker expression; assay type: cell-based, Lewis rats; details: positive: proliferation more than 2 times background in 2 of 4 experiments and/or activation marker upregulation in 2 of 3 experiments
# Experimental: As an immediate read-out for mimicry peptides T-cell activation is measured by proliferation, TcR downregulation, expression of activation markers, and cytokines responses of clone A2b. In addition A2b-like T cells from arthritic rats are isolated, and activation of such cells is measured by, proliferation, TcR downregulation, expression of activation markers, and cytokines responses. Furthermore, T-cell lines are generated after immunisation with MT/IFA or selected peptides/DDA. The cross-reactive nature of the peptide specific T-cell responses is analysed in vitro by determining the recognition of both the self peptide as well as the mycobacterial hsp65 178-186 peptide. After testing the panel of n=65 peptides for induction of proliferation of T cell clone A2b, and/or induction of expression of activation markers, n=20 peptides (SEQ ID NOs: 15, 19, 20, 21, 22, 23, 24, 26, 30, 31, 32, 33, 35, 49, 51, 61, 63, 65, 67, 69) were considered positive. Criteria for positivity were that in 2 out of 4 experiments the induced proliferation was more than 2 times background proliferation as measured by ^3H-thymidine incorporation, and/or that in 2 out of 3 experiments upregulation of an activation marker was detectable by FACS analysis.
# arthritis = test: Arthritis induction by immunisation with peptide in DDA adjuvant; assay type: in vivo; details: rats with clinical arthritis/rats immunised; 50 μg peptide in 100 μl DDA, one hind footpad
# Experimental: To check the arthritogenic potential of the selected peptides, rats are immunised with 50 μg peptide in 100 μl DDA adjuvant in one hind footpad. […] Two of the five peptides show defined clinical arthritis. * Arthritis is induced by Immunisation of 50 μg peptide in 100 μl DDA adjuvants in one hind footpad and scored upon clinical examination.
# DTH reaction = test: Delayed type hypersensitivity reaction after peptide/DDA immunisation; assay type: in vivo, rats; details: challenge day 72, peptide/saline s.c. in ear; measured 24 and 48 hr
# Experimental: # DTH (Delayed type hypersensitivity) reactions are induced at day 72 after immunisation of peptide/DDA, by subcutaneous injection of the peptide/saline in the ear. DTH are measured 24 and 48 hr after challenge.
# adjuvant arthritis = test: Nasal peptide administration in the adjuvant arthritis model; assay type: in vivo, rats; details: for Day of onset / Arthritis score: 100 μg peptide nasal at days 0, 3, 7, 11, mean±sd, n=4 rats; for Arthritis score: scale 0-16
# Experimental: The potential arthritis protective qualities of selected peptides/proteins are tested through nasal or oral tolerance induction in the adjuvant arthritis model.
# * Adjuvant arthritis is induced at day 0 by immunisation of MT/IFA (5 mg/ml MT) at the base of the tail. At days 0, 3, 7 and 11, 100 μg peptide in 10 μl saline is administered in the nostrils. Arthritis is scored upon clinical examination on a scale from 0-16. Data are expressed as mean±sd (n=4 rats/group).
# [2] = test system: T cells from inguinal and popliteal lymph nodes and spleen; test: T-cell recognition (proliferation) during adjuvant arthritis time course; assay type: cell-based, Lewis rats; details: positive: proliferation more than 1.5 times background in more than 25% of organs; days 14, 19, 21, 32, 39
sequence,measurement,setting,value
"AFGLQLELT [SEQ ID NO: 4, AFGLQLELT]",IC50,MHC class II RT1.B^L,64 to 128 µM
"FFYFFTGSSQLEFDP [SEQ ID NO: 70, FFYFFTGSSQLEFDP]",JCA patients responding (n = 6 tested),[1],2
same,RA patients responding (n = 39 tested),[1],29^
same,IC50,DRB1*0401,< 8 µM
LKSVNGQIE (listed as Rattus sp.) [SEQ ID NO: 15],Recognition by T cell clone A2b,T cell clone A2b,positive
same,Arthritis Induction,arthritis,0/4
same,DTH reaction,DTH reaction,2/2
same,Day of onset,adjuvant arthritis,15.0 ± 1.7
same,Protective effect in adjuvant arthritis upon nasal administration,adjuvant arthritis; in words,protective effect
same,Arthritis score,adjuvant arthritis,4.3 ± 4.8
"NAMLKSICEVLDLER [SEQ ID NO: 81, NAMLKSICEVLDLER]",JCA patients responding (n = 6 tested),[1],1
same,RA patients responding (n = 39 tested),[1],2
same,IC50,DRB1*0401,> 256 µM
"SAFWPSLPSYLDAAY [SEQ ID NO: 71, SAFWPSLPSYLDAAY]",RA patients responding (n = 39 tested),[1],4
same,IC50,DRB1*0401,8 to 16 µM
"SSFWPSLPSGVDAAY [SEQ ID NO: 73, SSFWPSLPSGVDAAY]",RA patients responding (n = 39 tested),[1],4
same,IC50,DRB1*0401,16 to 32 µM
"TAGLQLELT [SEQ ID NO: 5, TAGLQLELT]",IC50,MHC class II RT1.B^L,64 to 128 µM
"TFALQLELT [SEQ ID NO: 6, TFALQLELT]",IC50,MHC class II RT1.B^L,32 to 64 µM
"TFGAQLELT [SEQ ID NO: 7, TFGAQLELT]",IC50,MHC class II RT1.B^L,8 to 16 µM
"TFGLALELT [SEQ ID NO: 8, TFGLALELT]",IC50,MHC class II RT1.B^L,> 256 µM
"TFGLQAELT [SEQ ID NO: 9, TFGLQAELT]",IC50,MHC class II RT1.B^L,32 to 64 µM
"TFGLQLALT [SEQ ID NO: 10, TFGLQLALT]",IC50,MHC class II RT1.B^L,128 to 256 µM
"TFGLQLEAT [SEQ ID NO: 11, TFGLQLEAT]",IC50,MHC class II RT1.B^L,32 to 64 µM
"TFGLQLELA [SEQ ID NO: 12, TFGLQLELA]",IC50,MHC class II RT1.B^L,32 to 64 µM
"TFGLQLELT [SEQ ID NO: 3, TFGLQLELT, reference compound]",IC50,MHC class II RT1.B^L,32 to 64 µM
VQTAVTNID (listed as Rattus sp.) [SEQ ID NO: 53],T-cell recognition during adjuvant arthritis,[2],positive
same,Arthritis Induction,arthritis,0/4
same,DTH reaction,DTH reaction,2/2
VSSFSLNVE (listed as Rattus sp.) [SEQ ID NO: 26],Recognition by T cell clone A2b,T cell clone A2b,positive
same,Arthritis Induction,arthritis,0/4
same,DTH reaction,DTH reaction,2/2
same,Day of onset,adjuvant arthritis,13.0 ± 0
same,Arthritis score,adjuvant arthritis,11.0 ± 3.5
WPSLPSGLD (listed as Rattus sp.) [SEQ ID NO: 50],T-cell recognition during adjuvant arthritis,[2],positive
same,Arthritis Induction,arthritis,2/4
same,DTH reaction,DTH reaction,0/2
same,Day of onset,adjuvant arthritis,14.3 ± 2.0
same,Arthritis score,adjuvant arthritis,11.3 ± 3.8
WPSLPSNMD (listed as Rattus sp.) [SEQ ID NO: 48],Arthritis Induction,arthritis,1/4
same,DTH reaction,DTH reaction,0/2
same,Day of onset,adjuvant arthritis,13.3 ± 1.0
same,Arthritis score,adjuvant arthritis,10.5 ± 1.7
